Results taken from PMC11504489, “Potent Biological Activity of Fluorinated Derivatives of 2-Deoxy-D-Glucose in a Glioblastoma Model” (Biomedicines, 2024).

Biological target: T1, hexokinase II (HKII) (Homo sapiens, UniProt P52789)
T1 construct: gene HK2; recombinant HKII expressed in E. coli, first 16 aa from the N-terminal removed
T1 sequence (P52789 17-917): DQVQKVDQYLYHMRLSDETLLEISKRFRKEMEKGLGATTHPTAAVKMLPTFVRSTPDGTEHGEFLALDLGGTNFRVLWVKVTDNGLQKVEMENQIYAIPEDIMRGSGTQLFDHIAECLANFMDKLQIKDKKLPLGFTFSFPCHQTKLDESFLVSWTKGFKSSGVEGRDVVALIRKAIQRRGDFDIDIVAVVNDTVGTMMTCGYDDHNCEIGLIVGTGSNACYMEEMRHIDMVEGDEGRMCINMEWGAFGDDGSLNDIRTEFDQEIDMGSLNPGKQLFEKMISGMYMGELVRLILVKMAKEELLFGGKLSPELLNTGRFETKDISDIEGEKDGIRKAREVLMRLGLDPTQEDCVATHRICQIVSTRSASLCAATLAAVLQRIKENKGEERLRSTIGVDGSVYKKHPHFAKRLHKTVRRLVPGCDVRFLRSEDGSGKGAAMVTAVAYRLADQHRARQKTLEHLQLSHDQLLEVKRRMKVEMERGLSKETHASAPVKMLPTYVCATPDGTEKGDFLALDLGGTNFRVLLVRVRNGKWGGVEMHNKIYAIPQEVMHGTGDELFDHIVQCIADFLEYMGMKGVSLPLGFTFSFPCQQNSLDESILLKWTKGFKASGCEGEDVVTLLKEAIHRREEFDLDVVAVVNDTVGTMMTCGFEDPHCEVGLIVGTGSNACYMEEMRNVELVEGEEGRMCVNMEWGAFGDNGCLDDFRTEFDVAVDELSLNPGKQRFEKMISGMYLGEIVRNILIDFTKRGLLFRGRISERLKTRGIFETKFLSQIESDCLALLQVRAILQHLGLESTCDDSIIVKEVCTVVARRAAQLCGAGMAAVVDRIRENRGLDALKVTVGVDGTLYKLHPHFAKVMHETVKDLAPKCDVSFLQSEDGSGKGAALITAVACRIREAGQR
Test: […] NMR CPMG transverse relaxation titration
Assay type: binding
Settings: read-out: Kα [mol m^-3]

OC[C@H]1OC(O)C(F)(F)[C@@H](O)[C@@H]1O (mixture of isomers) [2,2-diFG, 2-deoxy-2,2-difluoro-D-glucopyranose]
Kd: 960 ± 200 µM
